What all share (type): cell-based, human
The subject of series [1] is IκBα. The experiment in a line: IκBα protein levels in ECV304 cells by Western blotting. The following applies: ECV cells, 2 hr exposure, 100 or 50 nM. How it is done: For IκBα expression studies, normally proliferating wild type ECV304 cells (ECV) or ECV-PR-39 and ECV-E4 cells were lysed in the loading buffer, subjected to electrophoresis on 10% SDS-PAGE gel and transferred to a PVDF membrane. IκBα expression was then determined by Western blotting with anti-IκBα antibody (Santa Cruz, Inc.). ECV304 cells treated for 2 hr with 10 μM of lactacystin (LC) were used as control.
Western blotting of ECV cell lysate was carried out following 2 hr exposure to buffer (0) or 100 or 50 nM of PR-39. […] Clearly, exposure of wild type ECV304 cells to the synthetic PR-39 peptide led to a dose-dependent increase in IκBα levels.

Series [2] has as its system IκBα. The experiment in a line: Reversibility of inhibition of IκBα degradation after washout in U937 cells. The following applies: 100 nM for 45 min, washed, 45 min later TNF-α 1 ng/ml, 10 min. How it is done: In parallel cells were exposed to MG132, a rapidly reversible competitive inhibitor of the proteasome or with lactacystin which covalently and irreversibly modifies the active site threonine residues. The results are shown by FIG. 1F.
U937 cells were pretreated with 100 nM of PR-39, 10 μM of either MG132 or lactacystin (LC) or buffer (Control) for 45 min. These cells were then extensively washed with fresh medium. 45 min later TNF-α (1 ng/ml) was added to medium, and the extent of IκBα degradation was determined 10 min later by Western blotting.

Series [3] relates to NFκB. In words: NFκB-dependent luciferase reporter (pNFκB-Luc) in ECV304 cells. The conditions noted are these: 45 min pretreatment with 10 nM, TNF-α 1 ng/ml. How it is done: The results are presented by FIG. 2A.
The effect of PR-39-mediated inhibition of IκBα degradation on NFκB-dependent transcription was tested in ECV304 cells transiently transfected with pNFκB-Luc reporter vector.

The subject of series [4] is ECV304 cells. In words: Cell growth in culture (Coulter cell counts). The conditions noted are these: 10 μM, 48 hours. How it is done:
Prolonged exposure to proteasome inhibitors tend to induce apoptosis in cell culture. To assess the potential cytotoxicity of PR-39, ECV304 cells were cultured in the presence of 10 μM of PR-39, MG132 or lactacystin.
50,000 ECV304 cells were plated in 6 well plates in 10% FBS-M199 and synchronized by serum deprivation in 0.5% FBS-DMEM for 48 hr. At the end of that time, cell culture medium was changed to 10% FBS-M199 and 10 μM of PR-39, lactacystin or buffer (control) were added. Forty eight hours later cell counts were determined using a Coulter Counter (Coulter Instruments, Inc.). All experiments were performed in triplicate and repeated 2 times (mean±SD).

Ends that are not written are not given here.

In the case of “RRRPRPPYLPRPRPPPFFPPRLPPRIPPGFPPRFPPRFP [PR-39]”, the IκBα protein levels result in series [1] is on record as “dose-dependent increase in IκBα protein levels”. Besides, the “extent of IκBα degradation after washout” value in series [2] is “complete disappearance of IκBα protein”. Also, in series [3], the “TNF-α induced increase in luciferase activity” value is “completely blocked”. Moreover, in series [4], the cell counts entry was “lack of significant growth inhibition”.

Source of the values: patent US7169604B1, “Method for PR-39 peptide mediated selective inhibition of IκBα degradation” (Beth Israel Deaconess Medical Center, priority 1998, dated 2007).
